Reference: US20240366594A1, “Small Molecule Inhibitors of Formation of Neutrophil-Derived Extracellular Traps (NETosis) and Uses Thereof” (The Brigham and Women's Hospital, Inc., priority 2021, published 2024)

Legend:
Murine neutrophils = test: ROS production (luminol-HRP luminescence) in murine neutrophils; assay type: cell-based, mouse; conditions: ricolinostat 10 μM, 1 μM PMA 3 h; FIG. 1G right
Procedure: FIGS. 1A-H. Class I/II HDACs drive NET formation • (A and B) Freshly purified human (A) or mouse (B) neutrophils were treated with the indicated HDAC inhibitors at different doses (10, 2, 0.4, 0.08 μM), or with GSK484 (10 μM), for 1 h and then stimulated with 1 μM PMA for 3 h. Cells were fixed and stained with anti-citrullinated histone H3 (CitH3) antibody. NETosis induction was measured as the level of anti-CitH3 fluorescent signal. PMA alone represents 100% of NET induction. “-”: Cells treated with the highest dose of the indicated drug but not activated with PMA. • (C and D) Human neutrophils were treated, or not, with ricolinostat or GSK484 and then stimulated with 1 μM PMA. NETosis induction was measured as area of nuclei stained with DAPI. (C) 3D reconstruction of nuclei in each treatment (grid size 7.8 μm). (D) Quantification of DAPI signal from multiple fields of view (D) (n=9 for unstimulated, not pretreated with any drug [NT] and ricolinostat, n=7 for GSK484). • (E and F) Human neutrophils were treated as in (C-D), and immunoblot analysis of the indicated proteins was performed. Relative quantification of band intensity was analyzed with ImageJ software (F). White violins plots depict the quantification of histone H3 acetylation; red violin plots depict the quantification of histone H3 citrullination. […] ROS production was measured by luminescence with luminol-HRP. […]

mouse neutrophils = test: Citrullinated histone H3 (CitH3) NET induction in PMA-stimulated mouse neutrophils; assay type: cell-based
Procedure: FIGS. 1A-H. Class I/II HDACs drive NET formation • (A and B) Freshly purified human (A) or mouse (B) neutrophils were treated with the indicated HDAC inhibitors at different doses (10, 2, 0.4, 0.08 μM), or with GSK484 (10 μM), for 1 h and then stimulated with 1 μM PMA for 3 h. Cells were fixed and stained with anti-citrullinated histone H3 (CitH3) antibody. NETosis induction was measured as the level of anti-CitH3 fluorescent signal. PMA alone represents 100% of NET induction. “-”: Cells treated with the highest dose of the indicated drug but not activated with PMA. • (C and D) Human neutrophils were treated, or not, with ricolinostat or GSK484 and then stimulated with 1 μM PMA. NETosis induction was measured as area of nuclei stained with DAPI. (C) 3D reconstruction of nuclei in each treatment (grid size 7.8 μm). (D) Quantification of DAPI signal from multiple fields of view (D) (n=9 for unstimulated, not pretreated with any drug [NT] and ricolinostat, n=7 for GSK484). • (E and F) Human neutrophils were treated as in (C-D), and immunoblot analysis of the indicated proteins was performed. Relative quantification of band intensity was analyzed with ImageJ software (F). White violins plots depict the quantification of histone H3 acetylation; red violin plots depict the quantification of histone H3 citrullination. Immunoblot in E is representative of four independent experiments. Gasdermin D NT, gasdermin D N terminal; pMLKL, phospho-MLKL. • (G) Human (left) or murine (right) neutrophils were treated, or not, with ricolinostat (10 μM) and then stimulated with 1 μM PMA for 3 h. ROS production was measured by luminescence with luminol-HRP. Histograms represent the total amount of ROS produced overtime. • (H) Murine neutrophils were treated, or not, with ricolinostat (10 μM) and then stimulated with fluorescent E. coli at the indicated multiplicity of infection (MOI) for 1 h. The histogram represents the percentage of neutrophils positive for E. coli staining. Graphs show mean±SEM. Statistics were calculated using one-way ANOVA (A, B, D) and two-way ANOVA (F, G, H) (*p<0.05; **p<0.01; ****p<0.0001. n.s., not significant). Statistics refers to the comparison with neutrophils stimulated with PMA alone (A, B). […]
FIGS. 5A-J. Class I/II HDACs drive NET formation. • A) Quantification of extracellular DNA released by neutrophils treated, or not, with 1 μM GSK484 for 1 h and then stimulated with 1 μM PMA for 4 hours. […] Extracellular DNA release was assessed in the supernatant 3 hours after PMA stimulation. […] NETosis induction was measured as level of anti-CitH3 fluorescent signal. […] NET induction was measured as in (C). […]

## O=C(CCCCCCNC(=O)c1cnc(N(c2ccccc2)c2ccccc2)nc1)NO [ricolinostat]
Murine neutrophils
  reactive oxygen species (ROS) production: did not alter
Mouse neutrophils; drugs 10, 2, 0.4, 0.08 μM for 1 h, then 1 μM PMA 3 h, FIG. 1B
  release of CitH3 (NET induction): efficiently decreased
Mouse neutrophils; murine neutrophils, PMA, FIG. 5J
  NET formation (level of CitH3): inhibited NET formation to a comparable extent
